Reference: US20010021697A1, “METHODS AND COMPOSITIONS FOR THE TREATMENT OF MAMMALIAN INFECTIONS EMPLOYING MEDICAMENTS COMPRISING HYMENOPTERA VENOM, PROTEINAGEOUS OR POLYPEPTIDE COMPONENTS THEREOF, OR ANALOGUES OF SUCH PROTEINACEOUS OR POLYPEPTIDE COMPONENTS” (priority 1987, published 2001)
Several values for one entry are separate records, joined by “and”; a condition that tells them apart may be missing. Equal entries are not always repeated.

What was measured:
Format in all cases: cell-based
[1] = test system: kanamycin resistant S. aureus; test: Checkerboard titration assay for synergy of honeybee venom with antibiotics (OD660 growth curves)
[2] = test system: Escherichia coli; test: Growth curves with polymyxin B and bumble bee, yellowjacket or baldfaced hornet venom; details: for optical density, AVERAGE: AVERAGE line; for optical density: single replicates
Description: The activity of hymenoptera venom other than HBV was also determined for bumblee venom, yellow jacket venom and bald faced hornet venom, as shown below in Tables 8, 9

[3] = test system: E. Coli strain No. G1108E; test: Checkerboard titration synergy assay of natural melittin and analogue #6 with polymyxin B
[4] = test system: E. coli G1108E; test: Checkerboard titration synergy assay of melittin analogues with polymyxin B; details: polymyxin B 6 units/ml, peptide 5 ug/ml, n = 6
[5] = 0 hours after innoculation, YJ 5 ug/ml, BF 5 ug/ml, Pol B 3.125 U/ml alone, Pol B 5 U/ml in the combinations
[6] = 0 hours after innoculation, doses of what is present: Pol B 3.125 Units/ml, BB Venom 5 ug/ml
[7] = 0 hours after innoculation, doses of what is present: Pol B 6.25 Units/ml, BB Venom 20 ug/ml
[8] = 2 hours after innoculation, YJ 5 ug/ml, BF 5 ug/ml, Pol B 3.125 U/ml alone, Pol B 5 U/ml in the combinations
[9] = 2 hours after innoculation, doses of what is present: Pol B 3.125 Units/ml, BB Venom 5 ug/ml
[10] = 2 hours after innoculation, doses of what is present: Pol B 6.25 Units/ml, BB Venom 20 ug/ml
[11] = 4 hours after innoculation, YJ 5 ug/ml, BF 5 ug/ml, Pol B 3.125 U/ml alone, Pol B 5 U/ml in the combinations
[12] = 4 hours after innoculation, doses of what is present: Pol B 3.125 Units/ml, BB Venom 5 ug/ml
[13] = 4 hours after innoculation, doses of what is present: Pol B 6.25 Units/ml, BB Venom 20 ug/ml
[14] = 6 hours after innoculation, YJ 5 ug/ml, BF 5 ug/ml, Pol B 3.125 U/ml alone, Pol B 5 U/ml in the combinations
[15] = 6 hours after innoculation, doses of what is present: Pol B 3.125 Units/ml, BB Venom 5 ug/ml
[16] = 8 hours after innoculation, YJ 5 ug/ml, BF 5 ug/ml, Pol B 3.125 U/ml alone, Pol B 5 U/ml in the combinations
[17] = 8 hours after innoculation, doses of what is present: Pol B 3.125 Units/ml, BB Venom 5 ug/ml
[18] = 8 hours after innoculation, doses of what is present: Pol B 6.25 Units/ml, BB Venom 20 ug/ml
[19] = 12 hours after innoculation, YJ 5 ug/ml, BF 5 ug/ml, Pol B 3.125 U/ml alone, Pol B 5 U/ml in the combinations
[20] = 12 hours after innoculation, doses of what is present: Pol B 3.125 Units/ml, BB Venom 5 ug/ml
[21] = 12 hours after innoculation, doses of what is present: Pol B 6.25 Units/ml, BB Venom 20 ug/ml

Substance: Polymyxin B
- MEAN A660 ([1]; POLY B = 50, HBV = 0, T4): 0.208
- MEAN A660 ([1]; POLY B = 50, HBV = 0, T6): 0.376
- MEAN A660 ([1]; POLY B = 50, HBV = 0, T8): 0.567
- MEAN A660 ([1]; POLY B = 50, HBV = 0, T12): 0.841
- MEAN A660 ([1]; POLY B = 50, HBV = 0, T24): 0.968
- MEAN A660 ([1]; POLY B = 100, HBV = 0, T0): 0.009
- MEAN A660 ([1]; POLY B = 100, HBV = 0, T2): 0.068
- MEAN A660 ([1]; POLY B = 100, HBV = 0, T4): 0.243
- MEAN A660 ([1]; POLY B = 100, HBV = 0, T6): 0.629
- MEAN A660 ([1]; POLY B = 100, HBV = 0, T8): 0.835
- MEAN A660 ([1]; POLY B = 100, HBV = 0, T12): 1.008
- MEAN A660 ([1]; POLY B = 100, HBV = 0, T24): 1.048
- optical density, AVERAGE [2, 5]: .038
- optical density [2, 5]: .038
- optical density, AVERAGE [2, 6]: .030
- optical density [2, 6]: .030
- optical density, AVERAGE [2, 7]: .030
- optical density [2, 7]: .030
- optical density, AVERAGE [2, 8]: .480
- optical density [2, 8]: .477 and .482
- optical density, AVERAGE [2, 9]: .649
- optical density [2, 9]: .654 and .642 and .652
- optical density, AVERAGE [2, 10]: .023
- optical density [2, 10]: .022 (2×) and .024
- optical density, AVERAGE [2, 11]: 1.03
- optical density [2, 11]: 1.03
- optical density, AVERAGE [2, 12]: 1.02
- optical density [2, 12]: 1.03 and 1.02 (2×)
- optical density, AVERAGE [2, 13]: .251
- optical density [2, 13]: .102 and .472 and .180
- optical density, AVERAGE [2, 14]: 1.07
- optical density [2, 14]: 1.07
- optical density, AVERAGE [2, 15]: 1.03
- optical density [2, 15]: 1.03
- optical density, AVERAGE ([2]; 6 hours after innoculation, doses of what is present: Pol B 6.25 Units/ml, BB Venom 20 ug/ml): .827
- optical density, AVERAGE [2, 16]: 1.08
- optical density [2, 16]: 1.08
- optical density, AVERAGE [2, 17]: 1.04
- optical density [2, 17]: 1.04
- optical density, AVERAGE [2, 18]: .960
- optical density [2, 18]: .960 and .950 and .970
- optical density, AVERAGE [2, 19]: 1.14
- optical density [2, 19]: 1.14
- optical density, AVERAGE [2, 20]: 1.13
- optical density [2, 20]: 1.12 and 1.14 (2×)
- optical density, AVERAGE [2, 21]: 1.03
- optical density [2, 21]: 1.03 (2×) and 1.04
- Average optical densities (OD660) ([3]; 0 hrs, doses of what is present: Polymyxin B 3 units, peptide 5 ug): .013
- Average optical densities (OD660) ([3]; 0 hrs, doses of what is present: Polymyxin B 6 units, peptide 10 ug): .013
- Average optical densities (OD660) ([3]; 2 hrs, doses of what is present: Polymyxin B 3 units, peptide 5 ug): .072
- Average optical densities (OD660) ([3]; 2 hrs, doses of what is present: Polymyxin B 6 units, peptide 10 ug): .072
- Average optical densities (OD660) ([3]; 4 hrs, doses of what is present: Polymyxin B 3 units, peptide 5 ug): .808
- Average optical densities (OD660) ([3]; 4 hrs, doses of what is present: Polymyxin B 6 units, peptide 10 ug): .423
- Average optical densities (OD660) ([3]; 6 hrs, doses of what is present: Polymyxin B 3 units, peptide 5 ug): 1.06
- Average optical densities (OD660) ([3]; 6 hrs, doses of what is present: Polymyxin B 6 units, peptide 10 ug): .840
- Average optical densities (OD660) ([3]; 8 hrs, doses of what is present: Polymyxin B 3 units, peptide 5 ug): 1.08
- Average optical densities (OD660) ([3]; 8 hrs, doses of what is present: Polymyxin B 6 units, peptide 10 ug): .911
- Average optical densities (OD660) ([3]; 12 hrs, doses of what is present: Polymyxin B 3 units, peptide 5 ug): 1.15
- Average optical densities (OD660) ([3]; 12 hrs, doses of what is present: Polymyxin B 6 units, peptide 10 ug): .930
- Optical densities (OD660), mean ([4]; 0 hours after culture inoculation): .007
- Optical densities (OD660), mean ([4]; 2 hours after culture inoculation): .088
- Optical densities (OD660), mean ([4]; 4 hours after culture inoculation): .470
- Optical densities (OD660), mean ([4]; 6 hours after culture inoculation): .926
- Optical densities (OD660), mean ([4]; 8 hours after culture inoculation): 1.02
- Optical densities (OD660), mean ([4]; 10 hours after culture inoculation): 1.04
- Optical densities (OD660), mean ([4]; 12 hours after culture inoculation): 1.06
